These results are taken from ChEMBL document CHEMBL1150863, “New triterpenoid saponins from the sponge Erylus nobilis” (2001).

The structures appear in SMILES notation. In brackets after ≈: the same amount, converted by molar mass.

For this assay, the system named is K562. The assay can be described thus: Cytotoxicity against human K562 cells. To be noted: read-out: LC50 (the source's name). It is filed as functional.
`C=C(CC[C@@H](C)[C@H]1CC[C@@]2(C(=O)O)C3=C(CC[C@]12C)[C@@]1(C)CCC(O[C@@H]2O[C@H](CO)[C@H](O)[C@H](O[C@@H]4OC[C@H](O)[C@H](O)[C@H]4O)[C@H]2O[C@@H]2O[C@H](CO)[C@@H](O)[C@H](O)[C@H]2NC(C)=O)C(C)(C)[C@@H]1CC3)C(C)C` (some centres undefined) [ERYLOSIDE G]: the CC50 was 22.1 µg/mL (≈ 22.8 µM).

Take `C=C(CC[C@@H](C)[C@H]1CC[C@@]2(C(=O)O)C3=C(CC[C@]12C)[C@@]1(C)CCC(O[C@@H]2OC[C@H](O)[C@H](O[C@@H]4OC[C@H](O)[C@H](O)[C@H]4O)[C@H]2O[C@@H]2O[C@H](CO)[C@@H](O)[C@H](O)[C@H]2NC(C)=O)C(C)(C)[C@@H]1CC3)C(C)C` (some centres undefined) [ERYLOSIDE H]: the CC50 was found to be 24.8 µg/mL (≈ 26.4 µM).

On to `C=C(CC[C@@H](C)[C@H]1CC[C@@]2(C(=O)O)C3=C(CC[C@]12C)[C@@]1(C)CCC(O[C@@H]2O[C@H](CO)[C@H](O)[C@H](O[C@@H]4OC[C@H](O)[C@H](O)[C@H]4O)[C@H]2O[C@@H]2O[C@H](CO)[C@@H](O)[C@H](O)[C@H]2NC(C)=O)C(C)(C)[C@@H]1CC3)C(C)(C)C` (some centres undefined) [ERYLOSIDE I], for which the CC50 turned out to be 17.9 µg/mL (≈ 18.2 µM).

For `C=C(CC[C@@H](C)[C@H]1CC[C@@]2(C(=O)O)C3=C(CC[C@]12C)[C@@]1(C)CCC(O[C@@H]2OC[C@H](O)[C@H](O[C@@H]4OC[C@H](O)[C@H](O)[C@H]4O)[C@H]2O[C@@H]2O[C@H](CO)[C@@H](O)[C@H](O)[C@H]2NC(C)=O)C(C)(C)[C@@H]1CC3)C(C)(C)C` (some centres undefined) [ERYLOSIDE J], the CC50 was 21.8 µg/mL (≈ 22.9 µM).
